Laboratory results from article PMC10564794, “Safety and tolerability of oral vorolanib for neovascular (wet) age-related macular degeneration: a phase I, open-label study” (Eye, 2023).
“Also recorded” adds a separate entry of the source. Read-outs that look alike come from different tables or passages of the source.

Experiments:
[1] = Pharmacokinetics of vorolanib after single and multiple dosing; assay type: in vivo, human; conditions: for half-life / Cmax / Tmax / AUC / Vd/F / AUC(0-t): human, plasma, oral; for Tmax: median (range); for Vd/F: read-out: Vz/F (apparent volume of distribution); for AUC(0-t): read-out: AUC0-24h
Experimental: In the initial PK evaluation after a single dose, blood samples from participants in the 25 mg group were collected predose (−0.5 h) and at 0.5, 1, 2, 3, 4, 6, 8, 12, 16, 24, 36, and 48 h post-dose; blood samples from participants in the 50 mg and 75 mg groups were collected predose (−0.5 h) and at 0.5, 1, 2, 3, 4, 6, 8, 12, 16, 24, 36, 48, and 72 h post-dose. During continuous dosing, blood in the 50 mg group was obtained on Day 7, Day 14 and Day 21 predose and on Day 30 predose and at 0.5, 1, 2, 3, 4, 6, 8, 12, 16 and 24 h post-dose, while blood in the 75 mg group was obtained on Day 7, Day 14 and Day 21 predose and on Day 30 predose and at 0.5, 1, 2, 3, 4, 6, 8, 12, 16, 24, 36, 48, and 72 h post-dose. The multiple dose data for 25 mg were not collected.
All participants moved from single dosing to multiple daily dosing.

[2] = system: study eyes of participants with nAMD; assay: Efficacy: change from baseline in BCVA (ETDRS), CST and CNV characteristics; assay type: in vivo, human
Experimental: The efficacy outcomes included changes from baseline in mean BCVA based on ETDRS, central subfield thickness (CST), and CNV characteristics. CST was confirmed by a […] (Heidelberg Engineering, Heidelberg, Germany) at screening, Day 14, and Day 30; then monthly for the next 6 months; and then every 3 months until the end of treatment. FA was performed by a Heidelberg retina tomograph (Heidelberg Engineering) with an Ophthavision Imaging System (MRP Group, Boston, MA) capture station at the screening, Day 90, Day 180, Day 270 and Day 360 visits.
Because this was a phase I study, no power calculation was performed to determine sample size. All participants who had received at least one dose of vorolanib were included in the safety assessment. All participants who completed the course of vorolanib treatment were included for efficacy assessment. All participants who had received at least one dose of vorolanib and who had PK data were included in the PK analysis. Descriptive statistics were used for analyses. For quantitative data, the means ± standard deviations were selected. All statistical analyses were performed with SAS software, v. 9.4 (SAS Institute Inc., Cary, NC, USA).

[3] = system: participants with advanced cancer; design: method as in PMID 33707933; conditions: US participants with advanced cancer, once daily; cited from earlier work
[4] = system: human umbilical vein endothelial cells stimulated with rHuVEGF165; design: method as in PMID 33610563; conditions: HUVEC stimulated with rHuVEGF165; cited from earlier work
[5] = system: oxygen-induced retinopathy mice; design: method as in PMID 33610563; conditions: cited from earlier work
CNV rat model = system: CNV rat model; design: method as in PMID 29201457; conditions: oral administration; cited from earlier work
[6] = system: Caucasian participants with nAMD; conditions: cited from earlier work
[7] = multiple doses 50 mg daily, n = 8, arithmetic mean (%CV)
[8] = multiple doses 75 mg daily, n = 8, arithmetic mean (%CV)

Compound: Cc1[nH]c(/C=C2\C(=O)Nc3ccc(F)cc32)c(C)c1C(=O)N[C@H]1CCN(C(=O)N(C)C)C1 [vorolanib, Vorolanib]
- half-life ([1]; 50 mg, single dose 50 mg, n = 8, arithmetic mean (%CV)): 10.7 h
- Cmax ([1]; 50 mg, single dose 50 mg, n = 8, arithmetic mean (%CV), read-out: Cmax): 201 ng/mL
- Tmax ([1]; 50 mg, single dose 50 mg, n = 8, read-out: Tmax): 6 h
- half-life ([1]; 75 mg, multiple doses 75 mg daily, n = 8, arithmetic mean (%CV)): 7.3 h
- Cmax ([1]; 75 mg, multiple doses 75 mg daily, n = 8, arithmetic mean (%CV), read-out: Cmax,ss): 269 ng/mL
- Tmax ([1]; 75 mg, multiple doses 75 mg daily, n = 8, read-out: Tmax,ss): 4 h
- half-life ([1]; 75 mg, single dose 75 mg, n = 8, arithmetic mean (%CV)): 10.3 h
- Cmax ([1]; 75 mg, single dose 75 mg, n = 8, arithmetic mean (%CV), read-out: Cmax): 237 ng/mL
- Tmax ([1]; 75 mg, single dose 75 mg, n = 8, read-out: Tmax): 4 h
- half-life ([1]; single dosing, 25–75 mg cohorts, approximately): 5.9 to 10.7 h
- AUC [1, 7]: 2180 ng·h/mL
- Vd/F [1, 7]: 180 L
- AUC [1, 8]: 1950 ng·h/mL
- Vd/F [1, 8]: 436 L
- AUC(0-t) ([1]; single dose 25 mg, n = 8, arithmetic mean (%CV)): 1010 ng·h/mL
- AUC(0-t) ([1]; single dose 50 mg, n = 8, arithmetic mean (%CV)): 1730 ng·h/mL
- AUC(0-t) ([1]; single dose 75 mg, n = 8, arithmetic mean (%CV)): 1700 ng·h/mL
- CLss/F (apparent oral clearance) [1, 7]: 26.2 (40.1) L/h
- Rac (accumulation ratio based on AUCss) [1, 7]: 1.30 (31.3)
- CLss/F (apparent oral clearance) [1, 8]: 42.4 (32.7) L/h
- Rac (accumulation ratio based on AUCss) [1, 8]: 1.20 (36.2)
- AUC in Chinese people versus Americans ([1]; preliminary PK results, unpublished data): relatively higher AUC in Chinese people than in Americans
- Mean Change from Baseline to day 180 CST ([2]; 25 mg cohort, N 16): −11.7 μm
- Mean Change from Baseline to day 360 BCVA ([2]; 25 mg cohort, N 16): +4.3 letters
- Mean Change from Baseline to day 360 CST ([2]; 25 mg cohort, N 16): −27.0 μm
- Mean Change from Baseline to day 180 CST ([2]; 50 mg cohort, N 16): −85.0 μm
- Mean Change from Baseline to day 360 BCVA ([2]; 50 mg cohort, N 16): +8.5 letters
- Mean Change from Baseline to day 360 CST ([2]; 50 mg cohort, N 16): −54.8 μm
- Mean Change from Baseline to day 180 CST ([2]; 75 mg cohort, N 8): −33.0 μm
- Mean Change from Baseline to day 360 BCVA ([2]; 75 mg cohort, N 8): +12.0 letters
- Mean Change from Baseline to day 360 CST ([2]; 75 mg cohort, N 8): −45.5 μm
- Mean decrease in CNV area ([2]; 41 participants, baseline to Day 360, range −3.8–0.2): −0.9 mm^2
- Mean decrease in lesion area ([2]; 41 participants, baseline to Day 360, range −4.8–0.5): −1.3 mm^2
- Mean decrease in CNV leakage ([2]; 41 participants, baseline to Day 360, range −10.8–0.2): −4.0 mm^2
- Mean BCVA improvement at follow-up after treatment ([2]; 75.6% of participants who continued follow-up one month after vorolanib treatment): 2.6 letters
- Participants evaluable at Day 360 who maintained or improved vision ([2]; Day 360): 12 (29.3%) participants (%)
- Reduced CNV area ([2]; accompanying decline in CNV leakage): 37.4%
- Mean Change from Baseline to day 180 CST ([2]; all cohorts, N 41): −48.6 μm
- Mean Change from Baseline to day 360 CST ([2]; all cohorts, N 41, range −258–40): −44.0 μm
- Mean reduction in CST ([2]; by Day 180, all participants): 48.6 μm
- Recommended dose of vorolanib monotherapy [3]: 400 mg
- Antiangiogenic effects [4]: highly antiangiogenic effects
- Retinal neovascularization and avascular area in the retina [5]: markedly inhibited
- CNV lesion area and pathological neovascularization (CNV rat model): strongly repressed CNV; also recorded: reduced the CNV lesion area and pathological neovascularization
- Participants with ocular AEs ([6]; 4 of 35 participants, none related to vorolanib): 11.4%
- Participants with serious AEs ([6]; 4 serious AEs in 3 participants, none attributed to vorolanib): 8.6%
- Mean BCVA change ([6]; at 24 weeks): +3.8 letters
- Deaths or DLTs [6]: no deaths or DLTs
- Systemic AEs ([6]; number of events): 94
- Vorolanib-related systemic AEs ([6]; of 94 systemic AEs): 32
- Mean reduction in CST ([6]; participants that completed 24 weeks): 50 μm
